Our source for the toxicity values is patent publication US8062669B2, “Vectorization system comprising nanoparticles of homogenous size of at least one polymer and at least one positively charged polysaccharide and method for the preparation thereof” (Bioalliance Pharma, priority 2002, dated 2011).

Procedure for CEM 4FX cells: (§1) The NIH 3T3 and NIH 3T3 EWS-Fli-1 (adherent cells) were sown on 6-well plates at 100,000 cells per well in their culture medium without puromycin and the IW35 cells (cells in suspension) in 12-well plates at the rate of 750,000 cells per well. Other cells in suspension CEM 4FX were also tested. They were sown at 10,000 cells per well in 96-well plates.
(§2) Different concentrations of CTAB and chitosan of various molecular weight were tested.
(§3) Two controls were used and corresponded to the cells in the culture medium on the one hand and in the culture medium containing 100 μl of NaCl 150 mM on the other hand. After 24 hours of incubation, the measurements of cytotoxicity were performed by a test measuring the activity of the mitochondrial dehydrogenase enzymes of the living cells by oxidation of MTT (3-(4,5-dimethyl thiazol-2-yl)-2,5-diphenyl tetrazolium bromide; SIGMA) in formazan. The amount of formazan produced is directly proportional to the number of metabolically active live cells. The cells were washed with PBS and 1 ml of the medium was added. The cells were then incubated at 37° C. with 100 μl of a solution of MTT (5 mg/ml in PBS) for 3 hours. 1 ml of a lysis solution (10% SDS, 10 mM Tris) was then added to each well. The cells were incubated at 37° C. overnight. The medium was homogenized and the optical density was read at 560 nm (Dynatech MRX).
Procedure for IW35 cells: as §1, §2, §3
Procedure for NIH 3T3 EWS-Fli1 cells: (§4) The NIH 3T3 and NIH 3T3 EWS-Fli-1 (adherent cells) were sown on 6-well plates at 100,000 cells per well in their culture medium without puromycin and the IW35 cells (cells in suspension) in 12-well plates at the rate of 750,000 cells per well.
(§5) For the first two cell types, the cells were sown 24 hours prior to their transfection. The medium was then eliminated and 100 μl of solution of the complex to be tested was brought into contact with the cells in 900 μl of medium.
as §2
(§6) Two controls were used and corresponded to the cells in the culture medium on the one hand and in the culture medium containing 100 μl of NaCl 150 mM on the other hand. After 24 hours of incubation, the measurements of cytotoxicity were performed by a test measuring the activity of the mitochondrial dehydrogenase enzymes of the living cells by oxidation of MTT (3-(4,5-dimethyl thiazol-2-yl)-2,5-diphenyl tetrazolium bromide; SIGMA) in formazan. The amount of formazan produced is directly proportional to the number of metabolically active live cells. The cells were washed with PBS and 1 ml of the medium was added. The cells were then incubated at 37° C. with 100 μl of a solution of MTT (5 mg/ml in PBS) for 3 hours. […] The medium was homogenized and the optical density was read at 560 nm (Dynatech MRX).
Procedure for NIH 3T3 cells: as §4, §5, §2, §6

As for `CCCCCCCCCCCCCCCC[N+](C)(C)C.[Br-]` [CTAB, cetyl trimethyl ammonium bromide], the toxicity result with NIH 3T3 cells is listed as “notable toxicity”; in the series with NIH 3T3 EWS-Fli1 cells it was “notable toxicity”; in the series on IW35 cells it was “elevated toxicity at low concentrations”; in the series on CEM 4FX cells, “elevated toxicity at low concentrations”.
